Reference: ChEMBL document CHEMBL1124610, “Tyrphostins I: synthesis and biological activity of protein tyrosine kinase inhibitors” (J Med Chem, 1989)

Molecular target: T1, Epidermal growth factor receptor (Homo sapiens, UniProt P00533)
Assay: (§1) Inhibitory concentration of EGF dependent autophosphorylation of epidermal growth factor receptor kinase; call rule not given here

T1 sequence (P00533 whole entry): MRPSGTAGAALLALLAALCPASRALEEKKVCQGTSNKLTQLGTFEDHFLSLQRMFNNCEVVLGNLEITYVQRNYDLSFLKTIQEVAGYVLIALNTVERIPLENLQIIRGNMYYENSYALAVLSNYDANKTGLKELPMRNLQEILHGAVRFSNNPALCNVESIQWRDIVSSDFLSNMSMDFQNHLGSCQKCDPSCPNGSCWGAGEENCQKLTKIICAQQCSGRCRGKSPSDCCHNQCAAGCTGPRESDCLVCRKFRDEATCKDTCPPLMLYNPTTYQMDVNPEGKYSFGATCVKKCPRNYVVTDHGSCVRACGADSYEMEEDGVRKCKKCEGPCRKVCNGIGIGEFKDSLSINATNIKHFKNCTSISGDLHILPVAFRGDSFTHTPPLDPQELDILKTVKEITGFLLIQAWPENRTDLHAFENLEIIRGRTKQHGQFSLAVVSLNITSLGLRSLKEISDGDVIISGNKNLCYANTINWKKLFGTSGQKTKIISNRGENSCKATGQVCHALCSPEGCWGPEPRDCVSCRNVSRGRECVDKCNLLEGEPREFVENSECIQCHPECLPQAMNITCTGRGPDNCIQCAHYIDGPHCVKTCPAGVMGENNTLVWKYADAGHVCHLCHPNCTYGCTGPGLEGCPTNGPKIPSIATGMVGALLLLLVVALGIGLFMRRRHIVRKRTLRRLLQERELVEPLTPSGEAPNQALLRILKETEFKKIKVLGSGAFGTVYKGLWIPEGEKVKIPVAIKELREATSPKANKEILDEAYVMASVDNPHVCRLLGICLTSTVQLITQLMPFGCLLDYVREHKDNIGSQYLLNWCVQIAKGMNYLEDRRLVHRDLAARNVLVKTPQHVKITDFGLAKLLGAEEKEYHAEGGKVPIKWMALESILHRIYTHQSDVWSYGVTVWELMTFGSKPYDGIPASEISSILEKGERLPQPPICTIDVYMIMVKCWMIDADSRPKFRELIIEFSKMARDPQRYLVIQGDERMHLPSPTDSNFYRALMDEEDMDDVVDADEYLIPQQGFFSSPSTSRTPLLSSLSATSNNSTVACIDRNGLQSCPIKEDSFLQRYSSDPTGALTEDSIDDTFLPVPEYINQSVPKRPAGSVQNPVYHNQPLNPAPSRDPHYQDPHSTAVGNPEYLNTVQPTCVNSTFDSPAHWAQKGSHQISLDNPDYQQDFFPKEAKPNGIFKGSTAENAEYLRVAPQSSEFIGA

Compound	IC50 [µM]
N#C/C(=C\c1ccc(O)c(O)c1)C(N)=O	10
N#CC(C#N)=Cc1ccc[nH]1	260
N#CC(C#N)=C(N)/C(C#N)=C/c1cc(O)c(O)c(Br)c1	0.5
CC(=C(C#N)C#N)c1ccc(NC(=O)CCC(=O)O)cc1	500
N#CC(C#N)=Cc1ccc(O)c([N+](=O)[O-])c1	125
CC(=C(C#N)C#N)c1ccc(N)cc1	> 1250
N#CC(C#N)=C(N)/C(C#N)=C/c1cc(O)c(O)c(O)c1 [TYRPHOSTIN 51]	0.8
N#CC(C#N)=C1C(=O)NC(=O)NC1=O	1400
CCCCc1cc(/C=C(\C#N)C(N)=O)cc(CCCC)c1O	55
N#CC(C#N)=Cc1ccc(NC(=O)CCC(=O)O)cc1	640
N#C/C(=C/c1cc(O)ccc1O)C(=O)O	75
COc1cc(C=C(C#N)C#N)ccc1O	200
COc1cc(C=C(C#N)C#N)cc(OC)c1O	850
CC(C)(C)c1cc(C=C(C#N)C#N)cc(C(C)(C)C)c1O [TYRPHOSTIN A9]	460
COc1cc(/C=C(\C#N)C(=O)O)cc(OC)c1O	700
N#CC(C#N)=CNc1ccc(O)cc1	350
N#CC(C#N)=Cc1cc(O)cc(O)c1	37
N#CC(C#N)=Cc1cc(O)ccc1[N+](=O)[O-]	96
N#CC(C#N)=Cc1ccc(N2CCOCC2)cc1	> 625
COc1cc(C=C(C#N)C#N)cc(O)c1O	6
N#CC(C#N)=Cc1ccncc1	250

Compound	IC50 [µM]
N#CC(C#N)=Cc1ccc(/C=C/C(=O)O)cc1	450
N#CC(C#N)=C(O)c1ccc(O)cc1	230
N#C/C(=C\c1ccc(C=O)cc1)C(=O)O	140
N#C/C(=C\c1ccc(O)c(O)c1)C(=O)O	70
N#CC(C#N)=Cc1ccc(C(=O)O)cc1	430
COc1ccc(C=C(C#N)C#N)cc1O	> 250
O=C(O)/C=C/c1ccc(O)cc1 [COUMARIC ACID]	3000
COc1cc(C=C(C#N)C#N)cc(OC)c1	> 1250
N#C/C(=C\c1ccc(F)cc1)C(=O)O	2500
N#CC(C#N)=Cc1ccc(O)cc1	560
N#C/C(=C\c1ccccc1)C(=O)O	> 2500
N#CC(C#N)=C(N)/C(C#N)=C/c1ccc(O)c([N+](=O)[O-])c1	60
COc1ccc(NN=C(C#N)C#N)cc1	600
O=C(O)C(=Cc1ccc(O)cc1)C(=O)O	1500
N#CC(C#N)=C(N)/C(C#N)=C/c1ccc(O)cc1	0.125
N#C/C=C/c1ccc(O)cc1	2400
N#CC(C#N)=Cc1ccc([N+](=O)[O-])c(O)c1	450
COc1ccc(C(O)=C(C#N)C#N)cc1	450
N#C/C(=C\c1ccc(O)cc1)C(=O)O [alpha-CYANO-4-HYDROXYCINNAMIC ACID]	308
N#CC(C#N)=C(O)c1cc(O)c(O)c(O)c1	13.5
N[C@@H](Cc1ccc(O)c(O)c1)C(=O)O [LEVODOPA]	900

Compound	IC50 [µM]
N#CC(C#N)=Cc1ccc(C=O)cc1	60
N#CC(C#N)Cc1ccc(O)cc1	6500
COc1cc(/C(C)=C(\C#N)C(=O)O)ccc1O	1100
COc1ccc(/C=C(\C#N)C(=O)O)cc1	2500
O=CN/C=C/c1cc(O)ccc1O [ERBSTATIN]	14
N#CC(C#N)=NNc1ccc(O)cc1	225
COc1cc(C=C(C#N)C#N)cc(Br)c1O	153
N#CC(C#N)=Cc1ccc(F)cc1	> 1250
N#CCNC(=O)/C(C#N)=C/c1ccc(O)cc1	625
N#CC(C#N)=Cc1cc(O)c(O)c(O)c1 [TYRPHOSTIN 25]	3
N#C/C(=C/c1ccc[nH]1)C(=O)O	1360
N#CC(C#N)=Cc1cccc(O)c1	375
COc1cc(/C=C(\C#N)C(=O)O)ccc1O	800
N#C/C(=C\c1ccc(O)cc1)C(N)=O	800
N#C/C(=C\c1ccc([N+](=O)[O-])cc1)C(=O)O	1300
N#CC(C#N)=C(N)/C(C#N)=C/c1ccc(O)c(O)c1	2.5
N#CC(C#N)=Cc1cc[n+]([O-])cc1	1300
COc1cc(C=C(C#N)C#N)cc([N+](=O)[O-])c1O	160
O=C(O)/C=C/c1ccc(O)c(O)c1 [CAFFEIC ACID]	1200

Molecular target: T1, Epidermal growth factor receptor
Assay: Inhibition of EGF-dependent epidermal growth factor receptor autophosphorylation (inactive)

Compound	IC50	Ki
O=[N+]([O-])c1ccc(O)c(O)c1 [4-Nitrocatechol]	Not Active	Not Active
O=C(O)c1ccc(O)cc1 [PARABEN]	Not Active	Not Active

Molecular target: T1, Epidermal growth factor receptor
Assay: as §1

Compound	IC50 [µM]
Cc1ccc(/C=C(\C#N)C(=O)O)cc1	1350
COc1cc(/C=C(\C#N)C(=O)O)cc(OC)c1O	700
N#C/C(=C\c1ccc(C=O)cc1)C(=O)O	140
N#C/C(=C\c1ccc(O)c(O)c1)C(=O)O	70
N#C/C(=C\c1ccc(F)cc1)C(=O)O	2500
N#C/C(=C\c1ccccc1)C(=O)O	> 2500
N#C/C(=C\c1ccc(O)cc1)C(=O)O [alpha-CYANO-4-HYDROXYCINNAMIC ACID]	308
COc1ccc(/C=C(\C#N)C(=O)O)cc1	2500
CN(C)c1ccc(/C=C(\C#N)C(=O)O)cc1	1400
COc1cc(/C=C(\C#N)C(=O)O)ccc1O	800
